System: T cell clone Z4B27
Test: Antigen presentation assay: IFN-γ release by T cell clone Z4B27
Format: cell-based
Details: CD1+ APC preincubated 2 h with sonicated antigen 1-10 μg/mL, 36 h, ELISA; FIG. 1; compared with unsulfated compound f and saturated comparative compound
Description: The release of IFN-γ produced by T cell clone Z4B27 prepared in accordance with the method disclosed in WO 2004/092192 in response to stimulation by the compounds of the invention was measured.
CD1+APC were preincubated at 5×10^4 cells/well for 2 h at 37° C. with sonicated antigen (1-10 μg/mL) before addition of T cells (5×10^4/well in triplicate). After 36 h released TNF-α and IFN-γ were measured using sandwich ELISA kits (Instrumentation Laboratory). Data are expressed as mean ng/mL or pg/mL±SD of triplicates. All experiments were repeated at least 2 times.

With CCCCCCCCCCCCCCCCC(C)CC(C)CC(C)C=C(C)C(=O)OC1C(O)C(CO)OC(OC2OC(CO)C(O)C(O)C2OS(=O)(=O)O)C1OC(=O)CCCCCCCCCCCCCCC [compound e, 2′-O-Sulfate-2-O-hexadecanoyl-3-O-[(4S,6S,8S)-2,4,6,8-tetramethyltetracos-2-enoyl]-α,α′-D-trehalose] the “IFN-γ produced by T cell clone Z4B27 in response to stimulation” value was “better activity”.

Reference: patent US8268801B2 (priority 2007, dated 2012)
